The values that follow come from ChEMBL document CHEMBL1152535, “Synthesis of branched 9-[2-(2-phosphonoethoxy)ethyl]purines as a new class of acyclic nucleoside phosphonates which inhibit Plasmodium falciparum hypoxanthine-guanine-xanthine phosphoribosyltransferase” (Bioorg Med Chem, 2009).

SMILES strings stand for the structures.

Assay [1] deals with T1, Hypoxanthine-guanine phosphoribosyltransferase (Homo sapiens, UniProt P00492).
T1 sequence (P00492 whole entry): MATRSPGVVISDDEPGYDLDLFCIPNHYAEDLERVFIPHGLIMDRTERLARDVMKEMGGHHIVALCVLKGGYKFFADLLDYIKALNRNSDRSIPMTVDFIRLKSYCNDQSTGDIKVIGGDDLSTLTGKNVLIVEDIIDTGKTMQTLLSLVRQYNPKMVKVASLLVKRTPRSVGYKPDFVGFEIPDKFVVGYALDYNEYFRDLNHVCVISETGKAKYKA
The experiment in a line: Inhibition of human recombinant HGPRT expressed in Escherichia coli by spectrophotometric assay.

Assay [2] can be described thus: Selectivity ratio of Ki for human recombinant HGPRT to Ki for Plasmodium falciparum recombinant HGXPRT.
Assay [3] in a line: Inhibition of Plasmodium falciparum recombinant HGXPRT expressed in Escherichia coli by spectrophotometric assay.

Broadly, the Ki is a dissociation constant, usually derived from enzyme kinetics or from competition with a known ligand. For `CC(CP(=O)(O)O)OCCn1cnc2c(=O)[nH]cnc21` (configuration not stated), the results for the inhibition constant Ki in assay [1] and in assay [3] were 2 µM and 10 µM, respectively. Also, the Ratio Ki in assay [2] came out at 0.2.

For `CCC(CP(=O)(O)O)OCCn1cnc2c(=O)[nH]cnc21` (configuration not stated), the inhibition constant (Ki) was determined as 10 µM in assay [1] and 69 µM in assay [3]. Moreover, the Ratio Ki in assay [2] was found to be 0.15.

Take `CCC(CP(=O)(O)O)OCCn1cnc2c(=O)[nH]c(N)nc21` (configuration not stated): the figures for the inhibitory constant (Ki) in assay [1] and in assay [3] were 0.3 µM and 5 µM, respectively. The Ratio Ki in assay [2] was 0.06.

`CC(CP(=O)(O)O)OCCn1cnc2c(=O)[nH]c(N)nc21` (configuration not stated): the Ki in assay [1] is 0.1 µM; in assay [3], 1 µM. Besides, in assay [2], the Ratio Ki was determined as 0.1.
